# Test results from patent publication US20090269309A1, “Retinoic acid stimulates differentiation of pancreatic progenitor cells into insulin producing cells” (priority 2004, published 2009).
# Several values for one entry are separate records, joined by “and”; a condition that tells them apart may be missing. Equal entries are not always repeated.
# Tested on: mouse embryonic day (e) 10 dorsal pancreatic buds
# Assay: Culture of e10 dorsal pancreatic bud explants with or without RA, endocrine cells scored by immunohistochemistry
# Assay type: cell-based
# From the text: From mating between C57BL/6 (wild-type) mice, pregnant females were sacrificed ten days after the appearance of a vaginal plug, and embryos collected. The ten-day-old embryos were dissected in L15 medium (Gibco) using forceps and tungsten needles. The L15 medium is […]
# At this embryonic stage the dorsal pancreatic bud can be seen as a round structure forming from the gut endoderm that can be dissected out from the surrounding tissues (see FIG. 3). Using a mouth pipette individual isolated pancreatic buds were placed on 0.4 μm, pore 3,28 12 mm Millicell-CM PICM01250 filters (Millipore) that were subsequently placed in a twenty-four well plate (Costar) where each well contained 400 μl culture medium, consisting of DMEM-glutamax1 (Gibco), 1×N2-supplement (Gibco) and PEST (Gibco).
# The explants were cultured for six days in 37° C. and 5% CO2 in culture medium alone (control explants) or with 25 nM all-trans retinoic acid (Sigma) added to the medium.
# After six days of culture the explants were washed twice in PBS, fixated in 4% PFA in PBS for 25 minutes followed by two more washes in PBS. Using a small pair of scissors the filter was cut around the explant and the filter piece with the explant attached to it was placed in Tissue Tek O.C.T. Compound 4583 (Sakura). In the Tissue Tek the explant was gently removed from the filter using tungsten needles. A small drop of Tissue Tek was applied on a glass slide (Menzel) and the explant was placed in the drop using forceps and tungsten needles. The glass slides were put on dry ice to freeze the drops and were then stored in −80° C.
# The frozen explants were sectioned using a Cryostat into […] thick sections that were collected on Superfrost Plus glass slides (Menzel). All explants from one experiment were put on the same slides. The slides were placed in a hybridisation chamber and blocked with blocking solution, TBST (50 mMT nsHCl, pH7.4, 150 mM MaCl, 0,1% Triton X-100)+10% FCS (fetal calf serum), for one hour. After blocking, primary antibodies diluted in fresh blocking solution were added and the slides were incubated overnight at 4° C. The following primary antibodies were used: guinea-pig α insulin (Linco) diluted 1/200, rabbit α glucagon (Euro Diagnostica) diluted 1/1000 and rabbit anti-ngn3 (raised against a GST-ngn3 fusion protein by AgriSeraAB) diluted 1/400. The slides were washed 3×5 minutes in TBST before incubation with secondary antibodies; a guinea-pig alexa488 (Molecular Probes) diluted 1/1000 and α rabbitCy3 (Jackson) diluted 1/400, for one hour in room temperature. The slides were then washed again 3×5 minutes in TBST before they were mounted using Vectashield with DAPI (Vector). The slides were analysed using a Nikon fluorescence microscope. The cells stained for insulin and glucagos respectively were counted and divided by the total number of cells that was counted using the DAPI staining which stains DNA i.e. every cell nucleus.
# To investigate a role for RA in pancreatic cell differentiation mouse embryonic day (e) 10 dorsal pancreatic buds, which primarily contain pancreatic stem cells and very few differentiated pancreatic cells, were cultured in serum free media with or without RA for six days. The in vitro cultured explants were then scored for the appearance of endocrine cells expressing glucagon and insulin by immunohistochemistry using antibodies specific for glucagon and insulin. In vitro cultivation in media alone generated a few glucagon-(˜10% of total cells) and insulin-positive (˜5% of total cells) cells but the majority of cells were of non-endocrine origin (FIGS. 1 A-C and data not shown). […] Moreover, RA preferentially stimulated the differentiation of insulin-positive cells, which increased ˜4.5 fold, whereas glucagon-positive cells increased only ˜1,5 fold (FIG. 1D-F).
smiles,measurement,setting,value
"CC1=C(/C=C/C(C)=C/C=C/C(C)=C/C(=O)O)C(C)(C)CCC1 [RA, all-trans retinoic acid]",increase in the number of ngn3-positive cells/total number of cells,"25 nM RA, 2 and 4 days of culture, versus medium alone",five-fold increase
same,effect on the number of glucagon cells,"25 nM RA, versus medium alone, N=6",No significant effect
same,increase in the number of insulin positive cells/total number of cells,"25 nM all-trans RA, six days of culture, versus explants in medium alone",> 3 fold and ~4.5 fold
same,increase in endocrine cells,"25 nM all-trans RA, six days, versus explants cultured in media alone",more than 2 fold
same,increase in glucagon-positive cells,"25 nM all-trans RA, six days, versus media alone","~1,5 fold"
same,endocrine cells (glucagon- and insulin-positive) of total cells,"25 nM all-trans RA, six days, media alone ~15%",~37%
